The target of this test is T1, DYNLL1 (Homo sapiens, UniProt P63167).
T1 construct: 6xHis (N); made in house; host or cells: E. coli BL21(DE3)Star
As to the kind of experiment: Isothermal titration calorimetry of peptide/protein binding to DYNLL1. The conditions noted are these: PBS + 3 mM 2-mercaptoethanol pH 7.4, 299 K; for ΔH: ITC binding enthalpy; for -TΔS: ITC entropy term; for Kd: ITC, 15 µM DYNLL1 in the cell, A + B to AB model, dimeric peptides reach the dynamic range limit of ITC. As for the experimental part:
Binding parameters of the in vitro evolved Ac-[…] and naturally evolved Ac-DKSTQTD consensus peptides were determined by isothermal titration calorimetry (ITC). Synthetic peptides were used and N-terminal acetylation was applied to better mimic a non-terminal peptide motif by avoiding the positively charged N-terminus. In order to elucidate the particular contribution of Val-5 to the binding affinity, several control peptides were produced. The in vitro evolved Val-5 was replaced with a glycine (Gly-5) to assess side chain function. In a further truncated variant the entire amino acid residue was replaced with an acetate group (Ac-5) to assess the function of the amide group at position −5. The same variations of Val-5, Gly-5 or Ac-5 were also introduced in the framework of the naturally evolved consensus peptide. DYNNL1 binding of all six variants was analyzed by ITC. In all measurements the stoichiometry of binding was 1∶1 (2 peptides binding to one homodimer DYNNL1). The binding was enthalpy-driven and was accompanied with unfavorable entropy change. Ac-5 versions of both the natural and the in vitro evolved consensus peptide had binding affinities in the micromolar range. Replacing the acetyl group with Gly-5 led to a tenfold affinity increase with both peptides.
All peptides and DYNLL1 were dialyzed overnight in PBS buffer supplemented with 3 mM 2-mercaptoethanol (pH 7.4). A typical binding experiment involved 15 µM DYNLL1 in the cell and 30–40 injections varying between of 3–5 µl peptide solution. For each experiment the thermodynamic parameters were determined at 299 K. We used a VP-ITC instrument from Microcal and the data were fitted by the software package Origin 5.0 (OriginLab) using the simple A + B to AB binding model. The signal from an initial 2 µl injection was eliminated. The equilibration time between injections was 900 sec.

The term Kd denotes the free concentration of one partner at which half of the binding sites on the other are occupied at equilibrium, for simple one-to-one binding.

T1 sequence (P63167 whole entry): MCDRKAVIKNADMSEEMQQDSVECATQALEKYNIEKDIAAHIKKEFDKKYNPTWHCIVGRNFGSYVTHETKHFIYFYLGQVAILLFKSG

For the substance “dimeric-GSGDKSTQTD [recombinant GCN4 leucine zipper-fused, dimerized Gly-5 natural consensus peptide]”, the ΔH was -18.2 kcal/mol, the “-TΔS” value was below 7.03 kcal/mol and the Kd is below 7 nM.
For “dimeric-GSGSRGTQTE [recombinant GCN4 leucine zipper-fused, dimerized Gly-5 in vitro evolved peptide]” the same measures were -16.6 kcal/mol, below 4.92 kcal/mol and below 3 nM.
The matching figures for “dimeric-GSVDKSTQTD [recombinant GCN4 leucine zipper-fused, dimerized Val-5 natural consensus peptide]”: -21 kcal/mol, below 10 kcal/mol and below 9 nM.
On to “dimeric-GSVSRGTQTE [recombinant GCN4 leucine zipper-fused, dimerized in vitro evolved consensus peptide]”, for which the ΔH is -15.5 kcal/mol, the “-TΔS” value is below 4.21 kcal/mol and the Kd is below 7 nM.

For the origin of these results see paper PMC3078936 (PLoS ONE, 2011).
